Measurements published in patent publication US20110077239A1, “GLYCINE RECEPTOR AGONISTS FOR THE TREATMENT OF PHANTOM PHENOMENA” (priority 2007, published 2011).

What was measured:
inner ear = conditions: chronic local administration to the inner ear of guinea pigs; high frequencies; cited from earlier work
auditory nerve = assay: Measurements of compound action potentials (CAP) of the auditory nerve after local administration; format: in vivo, rat
From the text: In the experiments adult female Wistar rats (Charles River, Sulzfeld, Germany) in the age of 2 to 4 months were used.
To get an access to the inner ear (cochlea) the middle ear is opened by surgery: A small opening behind the ear drum enables the access to the round window of the cochlea, in the massive bone of the bony labyrinth this is the only non-traumatic access to the inner ear. A silver wire electrode having a surface melted silver pearl is carefully positioned through the opening on the membrane of the round window, secured with tissue glue and the opening is closed with dental cement. The silver wire is conducted in the neck of the animal through the skin towards the outside and can then directly be connected to the electrophysiology amplifier for the measurements. The direct electrical access through the CAP electrode enables the direct largely interference-free down lead of the compound potentials of the auditory nerves resulting from an acoustic stimulation. In the signal response, besides the compound action potentials of the auditory nerves (CAP), also the formation of the excitation in the outer hair sense cells (OHC) can be detected as cochlea microphone potentials (CM). These three potentials in the measurements in vivo provide information on: 1) the activity of the auditory nerve close to the threshold up to high levels of acoustic pressure and, therefore, also on the modulation of the transmission, which is mediated by a glycinergic efferent feedback to the afferences of the IHCs, 2) the integrity of the IHCs (via the course of the SPs at increasing levels of acoustic pressures), 3) the amplification by the OHC (through the phase synchronicity of the CM signals with the auditory stimulus).
For this purpose the compound action potentials were activated by different sound stimuli (broadband click stimuli, pure sounds having frequencies of between 4 and 32 kHz, and degrees of loudness from 0 to 100 dB SPL).

| Structure (SMILES) | efferent activity and threshold shift after acoustic trauma (inner ear) | amplitude of the CAP signals two days after local administration (auditory nerve; 2 days after LA, high and low degrees of loudness, in relation to the untreated condition) | CAP amplitudes at high degrees of loudness after local administration (auditory nerve; local administration at round window niche, taurine 5 μl of a 50 mM solution, strychnine 5 μl of a 10 mM solution, high degrees of loudness) | CAP amplitudes at low to medium degrees of loudness after local administration (auditory nerve; local administration at round window niche, taurine 5 μl of a 50 mM solution, low to medium degrees of loudness) | amplitude of the CAP signal within 1-3 hours after local administration (auditory nerve; within 1-3 hours after local administration, measurements at 8 kHz, FIG. 7) |
| --- | --- | --- | --- | --- | --- |
| O=C1C[C@@H]2OCC=C3CN4CC[C@]56c7ccccc7N1[C@H]5[C@H]2[C@H]3C[C@H]46 [strychnine] | disrupts efferent activity and results in a permanent threshold shift |  |  |  |  |
| NCCS(=O)(=O)O [taurine] |  | still reduced | overlapping of the CAP amplitude function | increase slower | reduction of the amplitude of the CAP signals |
